Among the data in patent publication US20230339889A1, “DERIVATIVES OF 2-OXO-N-(4-(PYRIMIDIN-4-YLOXY/THIO)PHENYL)-1,2-DIHYDROPYRIDINE-3-CARBOXAMIDE FOR USE AS PROTEIN KINASE INHIBITORS FOR THERAPY” (AUCENTRA THERAPEUTICS PTY LTD, priority 2020, published 2023) are remaining activity and activity values, retold here.

In one assay the target is T1, AXL (Homo sapiens, UniProt P30530).
T1 construct: purchased Eurofins Discovery (Kinase Profiler service)
T1 sequence (P30530 26-894): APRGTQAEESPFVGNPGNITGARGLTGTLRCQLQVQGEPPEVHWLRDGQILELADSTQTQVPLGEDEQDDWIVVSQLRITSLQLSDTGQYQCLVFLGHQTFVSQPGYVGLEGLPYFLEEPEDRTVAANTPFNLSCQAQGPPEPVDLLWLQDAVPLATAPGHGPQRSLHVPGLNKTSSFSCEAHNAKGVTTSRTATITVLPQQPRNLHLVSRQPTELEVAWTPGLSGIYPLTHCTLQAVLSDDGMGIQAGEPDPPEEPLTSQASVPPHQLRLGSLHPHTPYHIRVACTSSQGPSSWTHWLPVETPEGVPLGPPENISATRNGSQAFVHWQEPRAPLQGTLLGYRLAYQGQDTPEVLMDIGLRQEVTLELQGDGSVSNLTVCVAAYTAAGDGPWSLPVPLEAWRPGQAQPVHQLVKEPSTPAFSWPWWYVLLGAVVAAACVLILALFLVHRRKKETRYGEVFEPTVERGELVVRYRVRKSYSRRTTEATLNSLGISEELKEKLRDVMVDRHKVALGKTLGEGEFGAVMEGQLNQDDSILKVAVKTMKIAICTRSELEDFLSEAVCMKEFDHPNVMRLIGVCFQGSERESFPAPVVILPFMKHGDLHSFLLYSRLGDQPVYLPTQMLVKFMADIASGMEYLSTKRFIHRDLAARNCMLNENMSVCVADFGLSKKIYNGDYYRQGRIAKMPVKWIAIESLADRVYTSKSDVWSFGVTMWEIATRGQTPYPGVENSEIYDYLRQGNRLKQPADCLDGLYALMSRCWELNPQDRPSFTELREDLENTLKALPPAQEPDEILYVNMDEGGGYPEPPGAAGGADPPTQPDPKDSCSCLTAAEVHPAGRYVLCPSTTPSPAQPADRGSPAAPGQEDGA
The assay is described as follows: Filter-binding radiometric kinase activity assay (KinaseProfiler, Eurofins). Format: biochemical. As to conditions: 1 µM compound; read-out: % Residual enzymatic activity at 1 µM AXL. The method, then: (§1) Filter-binding radiometric kinase activity assay (Kinase Profiler™) from Eurofins Discovery was used to determine the % of inhibition and/or IC50 values. […] The reaction is initiated by the addition of the Mg/ATP mixture. After incubation for 40 minutes at room temperature, the reaction is stopped by the addition of phosphoric acid to a concentration of 0.5%. 10 µL of the reaction is then spotted onto a P30 filter mat and washed four times for 4 minutes in 0.425% phosphoric acid and once in methanol prior to drying and scintillation counting. The IC50 values were derived by fitting a sigmoidal dose-response curve to a plot of assay readout over inhibitor concentration. All fits were computed with the GraphPad Prism Software (San Diego, CA, United States of America). Ki values were derived from IC5o values using Cheng Prusoff equation (Cheng Y et al., Biochem Pharmacol 22(23):3099-3108, 1973).

A further assay deals with T2, MET (Homo sapiens, UniProt P08581).
T2 construct: purchased Eurofins Discovery (Kinase Profiler service)
The assay is described as above. It is filed as biochemical. As to conditions: 1 µM compound; read-out: % Residual enzymatic activity at 1 µM MET. The method, then:
as §1

For another assay, the target named is T3, Mer (Homo sapiens, UniProt Q12866).
T3 construct: purchased Eurofins Discovery (Kinase Profiler service)
T3 sequence (Q12866 21-999): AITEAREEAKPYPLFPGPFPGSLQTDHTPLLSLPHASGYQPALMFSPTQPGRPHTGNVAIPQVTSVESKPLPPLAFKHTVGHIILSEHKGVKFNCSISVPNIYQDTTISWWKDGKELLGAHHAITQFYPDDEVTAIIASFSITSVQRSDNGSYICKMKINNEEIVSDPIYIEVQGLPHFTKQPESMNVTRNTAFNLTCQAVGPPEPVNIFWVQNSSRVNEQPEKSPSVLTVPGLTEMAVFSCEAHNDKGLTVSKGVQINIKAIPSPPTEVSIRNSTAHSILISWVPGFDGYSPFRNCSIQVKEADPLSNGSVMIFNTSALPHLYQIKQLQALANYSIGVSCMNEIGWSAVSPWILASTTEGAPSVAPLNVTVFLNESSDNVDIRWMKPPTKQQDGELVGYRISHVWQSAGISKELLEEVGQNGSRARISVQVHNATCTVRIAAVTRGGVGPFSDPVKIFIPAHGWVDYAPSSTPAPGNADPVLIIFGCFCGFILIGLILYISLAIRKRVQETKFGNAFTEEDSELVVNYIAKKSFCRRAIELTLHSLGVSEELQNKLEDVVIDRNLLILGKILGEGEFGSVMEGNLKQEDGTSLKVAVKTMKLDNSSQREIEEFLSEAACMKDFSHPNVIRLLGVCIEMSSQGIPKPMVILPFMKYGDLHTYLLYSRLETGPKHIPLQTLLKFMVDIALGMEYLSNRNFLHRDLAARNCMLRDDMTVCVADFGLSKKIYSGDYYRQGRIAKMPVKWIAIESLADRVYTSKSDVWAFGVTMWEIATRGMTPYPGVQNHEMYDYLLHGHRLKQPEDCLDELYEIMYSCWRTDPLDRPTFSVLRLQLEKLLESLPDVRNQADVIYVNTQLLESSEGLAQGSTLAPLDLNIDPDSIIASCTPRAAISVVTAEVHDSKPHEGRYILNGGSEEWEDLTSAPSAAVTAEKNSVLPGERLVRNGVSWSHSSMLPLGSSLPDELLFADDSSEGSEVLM
The assay is described as above. As to conditions: 1 µM compound; read-out: % Residual enzymatic activity at 1 µM Mer. It is filed as biochemical. The method, then: as §1

A further assay concerns the target T4, TYRO3 (Homo sapiens, UniProt Q06418).
T4 construct: purchased Eurofins Discovery (Kinase Profiler service)
T4 sequence (Q06418 41-890): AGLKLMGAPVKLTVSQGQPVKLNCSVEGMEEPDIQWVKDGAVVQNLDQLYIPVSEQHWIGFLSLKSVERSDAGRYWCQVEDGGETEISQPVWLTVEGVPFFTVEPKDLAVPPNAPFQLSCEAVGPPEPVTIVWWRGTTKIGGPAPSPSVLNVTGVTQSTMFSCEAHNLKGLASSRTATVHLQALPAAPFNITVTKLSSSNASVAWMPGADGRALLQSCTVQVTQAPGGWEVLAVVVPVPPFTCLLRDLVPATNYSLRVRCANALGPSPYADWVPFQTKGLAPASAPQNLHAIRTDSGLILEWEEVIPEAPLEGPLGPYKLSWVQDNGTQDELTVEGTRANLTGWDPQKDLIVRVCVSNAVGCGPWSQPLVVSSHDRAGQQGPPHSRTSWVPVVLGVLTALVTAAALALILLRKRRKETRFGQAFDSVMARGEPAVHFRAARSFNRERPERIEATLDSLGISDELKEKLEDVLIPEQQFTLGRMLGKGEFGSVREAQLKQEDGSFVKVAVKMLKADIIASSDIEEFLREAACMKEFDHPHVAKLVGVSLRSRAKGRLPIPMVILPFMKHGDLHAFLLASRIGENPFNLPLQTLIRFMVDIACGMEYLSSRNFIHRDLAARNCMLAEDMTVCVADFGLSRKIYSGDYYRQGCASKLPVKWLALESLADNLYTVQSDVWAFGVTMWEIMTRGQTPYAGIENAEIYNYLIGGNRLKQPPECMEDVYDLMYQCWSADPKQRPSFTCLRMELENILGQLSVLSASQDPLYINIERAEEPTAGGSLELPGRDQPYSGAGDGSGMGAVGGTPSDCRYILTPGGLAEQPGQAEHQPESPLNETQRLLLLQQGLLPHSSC
The assay is described as above. It is filed as biochemical. As to conditions: 1 µM compound; read-out: % Residual enzymatic activity at 1 µM TYRO3. The method, then: as §1

The subject of another assay is MV4-11. The experiment in a line: Proliferation assay (MTT, leukaemia cancer cell line). It is filed as cell-based. Particulars: Homo sapiens; 1 µM compound, MV4-11 cells. An excerpt:
Compounds from Example 1 were subjected to standard resazurin and MTT assays on solid tumour and leukaemia cancer cell lines, respectively, as previously reported (Wang S et al., J Med Chem 47:1662-1675, 2004 and Diab S et al., CheMedChem 9:962-972, 2014).

The target of another assay is CDK2E (Homo sapiens, UniProt P24941). The assay is described as follows: ADP Glo Kinase assay. Format: biochemical. Particulars: 1 µM compound; read-out: % Residual enzymatic activity at 1 µM CDK2E. The method, then: Inhibition of CDKs and FLT3 were determined using ADP Glo Kinase assays, as previously described in International Patent Publication No WO 2017/020065.

T2 sequence (P08581 25-1390): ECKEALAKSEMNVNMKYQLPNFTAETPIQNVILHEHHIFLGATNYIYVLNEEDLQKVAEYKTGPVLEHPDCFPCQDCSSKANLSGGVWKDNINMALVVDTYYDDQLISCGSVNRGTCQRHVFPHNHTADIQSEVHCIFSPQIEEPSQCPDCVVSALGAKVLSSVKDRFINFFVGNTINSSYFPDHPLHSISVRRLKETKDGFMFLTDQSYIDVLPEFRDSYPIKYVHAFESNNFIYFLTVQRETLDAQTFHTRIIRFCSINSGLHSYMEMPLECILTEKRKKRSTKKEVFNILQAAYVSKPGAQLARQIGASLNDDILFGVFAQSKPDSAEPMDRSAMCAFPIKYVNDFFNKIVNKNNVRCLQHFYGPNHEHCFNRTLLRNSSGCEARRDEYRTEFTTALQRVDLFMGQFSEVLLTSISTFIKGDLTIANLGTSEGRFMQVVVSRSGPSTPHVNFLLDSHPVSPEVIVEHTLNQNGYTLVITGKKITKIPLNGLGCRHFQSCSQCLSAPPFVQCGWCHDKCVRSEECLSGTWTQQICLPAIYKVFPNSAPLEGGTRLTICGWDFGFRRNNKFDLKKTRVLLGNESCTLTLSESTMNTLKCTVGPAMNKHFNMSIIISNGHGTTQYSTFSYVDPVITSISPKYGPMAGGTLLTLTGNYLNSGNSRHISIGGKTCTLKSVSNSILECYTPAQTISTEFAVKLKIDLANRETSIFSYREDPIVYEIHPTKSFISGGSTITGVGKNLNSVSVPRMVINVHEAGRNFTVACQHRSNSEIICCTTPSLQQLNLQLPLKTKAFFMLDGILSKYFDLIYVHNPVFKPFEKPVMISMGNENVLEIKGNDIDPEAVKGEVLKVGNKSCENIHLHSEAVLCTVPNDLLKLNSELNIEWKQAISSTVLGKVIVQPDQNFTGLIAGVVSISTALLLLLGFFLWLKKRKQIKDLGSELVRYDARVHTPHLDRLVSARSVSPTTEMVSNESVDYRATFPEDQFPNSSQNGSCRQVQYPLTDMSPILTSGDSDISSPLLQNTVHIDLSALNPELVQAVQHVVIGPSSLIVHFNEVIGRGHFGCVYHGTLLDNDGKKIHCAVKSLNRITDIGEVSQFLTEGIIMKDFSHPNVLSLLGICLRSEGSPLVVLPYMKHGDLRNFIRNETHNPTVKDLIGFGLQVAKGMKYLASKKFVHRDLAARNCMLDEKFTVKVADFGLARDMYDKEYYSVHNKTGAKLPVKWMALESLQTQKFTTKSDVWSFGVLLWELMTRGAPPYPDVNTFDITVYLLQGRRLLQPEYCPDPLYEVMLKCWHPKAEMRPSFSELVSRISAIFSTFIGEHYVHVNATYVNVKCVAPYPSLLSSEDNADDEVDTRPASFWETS

As to `Nc1ncc(Cl)c(Oc2ccc(NC(=O)c3cccn(-c4ccc(F)cc4)c3=O)cc2F)n1` [Cmpd 24, N-(4-((2-amino-5-chloropyrimidin-4-yl)oxy)-3-fluorophenyl)-1-(4-fluorophenyl)-2-oxo-1,2-dihydropyridine-3-carboxamide], the remaining activity at 1 µM at AXL amounted to 99%; on MET, 74%; on Mer, 87%; on TYRO3, 94%. The same compound registered an activity at 1 µM in the assay on MV4-11 of 27%.
Consider `Nc1ncnc(Oc2ccc(NC(=O)c3cccn(-c4ccc(Cl)cc4)c3=O)cc2F)c1F` [Cmpd 34, N-(4-((6-amino-5-fluoropyrimidin-4-yl)oxy)-3-fluorophenyl)-1-(4-chlorophenyl)-2-oxo-1,2-dihydropyridine-3-carboxamide], for which the remaining activity at 1 µM amounted to 50% on AXL; 91% at MET; 103% on Mer; 69% on TYRO3; 97% at CDK2E. For the same compound, the activity at 1 µM in the assay on MV4-11 amounted to 3%.
Consider `Cc1ccc(-n2cccc(C(=O)Nc3ccc(Oc4ncnc(N)c4F)c(F)c3)c2=O)cc1` [Cmpd 35, N-(4-((6-amino-5-fluoropyrimidin-4-yl)oxy)-3-fluorophenyl)-2-oxo-1-(p-tolyl)-1,2-dihydropyridine-3-carboxamide], for which the remaining activity at 1 µM at AXL is 70%; at MET it was 60%; on Mer, 99%; at TYRO3, 14%; at CDK2E it was 97%. The activity at 1 µM with MV4-11 is 6%.
Regarding `Nc1ncnc(Sc2ccc(NC(=O)c3cccn(-c4ccc(F)cc4)c3=O)cc2F)c1F` [Cmpd 19, N-(4-((6-amino-5-fluoropyrimidin-4-yl)thio)-3-fluorophenyl)-1-(4-fluorophenyl)-2-oxo-1,2-dihydropyridine-3-carboxamide], the remaining activity at 1 µM stood at 84% on AXL; 78% at MET; 99% at Mer; 89% on TYRO3; 93% at CDK2E. The activity at 1 µM with MV4-11 amounted to 6%.
Consider `Cc1ccc(-n2cccc(C(=O)Nc3ccc(Oc4ncnc(N)c4Cl)cc3F)c2=O)cc1` [Cmpd 15, N-(4-((6-amino-5-chloropyrimidin-4-yl)oxy)-2-fluorophenyl)-2-oxo-1-(p-tolyl)-1,2-dihydropyridine-3-carboxamide], for which the remaining activity at 1 µM on AXL is 64%; on MET, 74%; at Mer, 99%; at TYRO3, 39%. For the same compound, in the assay with MV4-11, the activity at 1 µM came out at 26%.
Take `Nc1ncnc(Oc2cc(F)c(NC(=O)c3cccn(-c4ccc(F)cc4)c3=O)cc2F)c1F` [Cmpd 20, N-(4-((6-amino-5-fluoropyrimidin-4-yl)oxy)-2,5-difluorophenyl)-1-(4-fluorophenyl)-2-oxo-1,2-dihydropyridine-3-carboxamide]: the remaining activity at 1 µM was found to be 31% at AXL; 4% on MET; 54% at Mer; 2% at TYRO3; 93% on CDK2E. The compound further displayed an activity at 1 µM in the assay on MV4-11 of 5%.
For `Nc1ncc(Cl)c(Oc2ccc(NC(=O)c3cccn(-c4ccc(F)cc4)c3=O)c(F)c2)n1` [Cmpd 25, N-(4-((2-amino-5-chloropyrimidin-4-yl)oxy)-2-fluorophenyl)-1-(4-fluorophenyl)-2-oxo-1,2-dihydropyridine-3-carboxamide], the remaining activity at 1 µM at AXL was determined as 92%; on MET it was 87%; at Mer, 88%; on TYRO3, 89%. The activity at 1 µM with MV4-11 turned out to be 65%.
On to `Nc1ncnc(Sc2ccc(NC(=O)c3cccn(-c4ccc(F)cc4)c3=O)c(F)c2)c1Cl` [Cmpd 39, N-(4-((6-amino-5-chloropyrimidin-4-yl)thio)-2-fluorophenyl)-1-(4-fluorophenyl)-2-oxo-1,2-dihydropyridine-3-carboxamide], for which the remaining activity at 1 µM at AXL came to 87%; at MET it was 70%; at Mer it was 82%; at CDK2E, 88%. The activity at 1 µM in the assay with MV4-11 was determined as 4%.
